The NIST ThermoML archive (doi:10.1021/je3005479)

Legend:
[1] = Liquid; for speed of sound / kinematic viscosity: 83.07 kPa; for speed of sound: Pulse-echo method; for mass density: 87.07 kPa, Vibrating tube method; for kinematic viscosity: Capillary tube (Ostwald / Ubbelohde) method
[2] = refractive index (Na D-line) (dimensionless); conditions: 83.07 kPa, Liquid, Standard Abbe refractometry

CC(C)C1CC(C(C)C)CC(C(C)C)C1 (stereo not drawn) [1,3,5-triisopropylcyclohexane]
Conditions	kinematic viscosity, [1] [m2/s]	mass density, [1] [kg/m3]	refractive index, [2]	speed of sound, [1] [m/s]
278.15 K	–	837.78	–	1405.7
283.15 K	–	834.14	–	1385
288.15 K	–	830.52	–	1364.8
293.15 K	7.66e-06	826.89	1.4571	1344.8
298.15 K	6.27e-06	823.27	1.4547	1325
303.15 K	5.22e-06	819.64	1.4525	1305.5
308.15 K	4.43e-06	816.02	–	1286.3
313.15 K	3.81e-06	812.39	–	1267.3
318.15 K	3.32e-06	808.76	–	1248.6
323.15 K	2.9e-06	805.12	–	1230
328.15 K	2.58e-06	801.49	–	1211.7
333.15 K	2.32e-06	797.85	–	1193.6
338.15 K	2.09e-06	794.21	–	1175.6
343.15 K	1.9e-06	790.57	–	1158
348.15 K	1.74e-06	–	–	–
353.15 K	1.6e-06	–	–	–
358.15 K	1.48e-06	–	–	–
363.15 K	1.37e-06	–	–	–
368.15 K	1.28e-06	–	–	–
373.15 K	1.19e-06	–	–	–
